IC50 and TD50 data for 25 compounds are collected here from patent publication US8008303B2, “Biphenyl derivatives and their use in treating hepatitis C” (AstraZeneca AB, priority 2005, dated 2011).

Where two headings read alike, the source gives them in different places.

Series [1] relates to HCV replicon cells Huh 9B. Description: HCV replicon assay (luciferase readout). The series is classed as cell-based. In short, it runs like this:
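Compounds, made up at twice final strength (final DMSO 1%), were added to subgenomic replicon cells one day after plating. Incubation then ran 72 h at 37 °C, 5% CO2, without G418. Replication was quantified as firefly luciferase luminescence in lysed cells, with cytotoxicity assessed on a duplicate clear plate.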
For orientation: Replicon systems follow genome replication, usually without infectious particles.

The subject of series [2] is HCV replicon cells Huh 9B. The series is classed as cell-based.
The mark [3] stands for this setting: Hepatitis C virus, 72 h, concentration reducing replicon level (luciferase activity) by 50% vs untreated cell control, 72 h incubation.
Where [4] appears, read: concentration reducing total cell area by 50% relative to DMSO controls, methylene blue, absorbance 620 nm, 72 h incubation.

Usually IC50 stands for the concentration that inhibits the measured activity by half. Low values mean greater potency in that assay, high ones weaker potency in that assay. Regarding `Cc1ccc(C(=O)Nc2ccc(N3CCOCC3)cc2)cc1-c1ccc(C(=O)NCc2ccsc2)cc1` [Example 40, 6-Methyl-biphenyl-3,4′-dicarboxylic acid 3-[(4-morpholin-4-yl-phenyl)-amide] 4′-[(thiophen-3-ylmethyl)-amide]], the half-maximal inhibitory concentration (IC50) in series [1] was 1000 to 5000 nM. The TD50 result in series [2] is “** (key: * < 50 μM; ** > 50 μM)”.

On to `COc1ccc(NC(=O)C2CC2)cc1-c1ccc(C(=O)Nc2ccc(CN3CCS(=O)(=O)CC3)cc2)cc1` [Example 186, 5′-(Cyclopropanecarbonyl-amino)-2′-methoxy-biphenyl-4-carboxylic acid [4-(1,1-dioxo-1lambda*6*-thiomorpholin-4-ylmethyl)-phenyl]-amide], for which, in series [1] (setting [3]), the IC50 is below 1000 nM. In series [2] (setting [4]), the TD50 result is “* (* < 50 μM)”.

The compound `Cc1ccc(C(=O)Nc2ccc(N3CCOCC3)cc2)cc1-c1ccc(C(=O)N2CCCC2)cc1` [Example 15, 6-Methyl-4′-(pyrrolidine-1-carbonyl)-biphenyl-3-carboxylic acid (4-morpholin-4-yl-phenyl)-amide] showed a 50% inhibitory concentration (IC50) in series [1] (setting [3]) above 5000 nM. For the same compound, the TD50 result in series [2] (setting [4]) is recorded as “* (* < 50 μM)”.

`CCCN(C)Cc1ccc(NC(=O)c2ccc(-c3cc(C(=O)Nc4ccc(N5CCOCC5)cc4)ccc3C)cc2)cc1` [Example 76, 6-Methyl-biphenyl-3,4′-dicarboxylic acid 4′-({4-[(methyl-propyl-amino)-methyl]-phenyl}-amide) 3-[(4-morpholin-4-yl-phenyl)-amide]] yielded an IC50 in series [1] of 1000 to 5000 nM. Moreover, in series [2], the TD50 result is reported as “* (key: * < 50 μM; ** > 50 μM)”.

For `Cc1ccc(C(=O)Nc2ccc(N3CCOCC3)cc2)cc1-c1ccc(C(=O)NCCc2cccs2)cc1` [Example 11, 6-Methyl-biphenyl-3,4′-dicarboxylic acid 3-[(4-morpholin-4-yl-phenyl)-amide] 4′-[(2-thiophen-2-yl-ethyl)-amide]], in series [1], the 50% inhibitory concentration (IC50) is 1000 to 5000 nM. Besides, in series [2], the TD50 entry was “** (key: * < 50 μM; ** > 50 μM)”.

On to `Cc1ccc(C(=O)Nc2ccc(N3CCOCC3)cc2)cc1-c1ccc(NC(=O)CNC(=O)c2ccccc2)cc1` [Example 105, 4′-(2-Benzoylamino-acetylamino)-6-methyl-biphenyl-3-carboxylic acid (4-morpholin-4-yl-phenyl)-amide], for which, in series [1] (setting [3]), the 50% inhibitory concentration (IC50) was 1000 to 5000 nM. Also, in series [2] (setting [4]), the TD50 entry was “** (** > 50 μM)”.

With `CN(C)S(=O)(=O)N1CCN(Cc2ccc(NC(=O)c3ccc(-c4cc(NC(=O)NC5CCCCC5)ccc4Cl)cc3)cc2)CC1` [Example 255, 2′-Chloro-5′-(3-cyclohexyl-ureido)-biphenyl-4-carboxylic acid [4-(4-dimethylsulfamoyl-piperazin-1-ylmethyl]-phenyl}-amide], the IC50 in series [1] (setting [3]) was below 1000 nM. The TD50 result in series [2] (setting [4]) is recorded as “* (* < 50 μM)”.

On to `Cc1ccc(C(=O)Nc2ccc(N3CCOCC3)cc2)cc1-c1ccc(C(=O)Nc2ccc3cn[nH]c3c2)cc1` [Example 67, 6-Methyl-biphenyl-3,4′-dicarboxylic acid 4′-[(1H-indazol-6-yl)-amide] 3-[(4-morpholin-4-yl-phenyl)-amide]], for which, in series [1], the half-inhibitory concentration (IC50) is below 1000 nM. The TD50 result in series [2] is on record as “** (key: * < 50 μM; ** > 50 μM)”.

In turn, `Cc1ccc(C(=O)Nc2ccc(N3CCOCC3)cc2)cc1-c1ccc(C(=O)Nc2ccc(C#N)cc2)cc1` [Example 24, 6-Methyl-biphenyl-3,4′-dicarboxylic acid 4′-[(4-cyano-phenyl)-amide] 3-[(4-morpholin-4-yl-phenyl)-amide]] returned an IC50 in series [1] above 5000 nM. For the same compound, in series [2], the TD50 entry is “** (key: * < 50 μM; ** > 50 μM)”.

Turning to `Cc1ccc(C(=O)Nc2ccc(N3CCOCC3)cc2)cc1-c1ccc(C(=O)Nc2ccc(CO)cc2)cc1` [Example 81, 6-Methyl-biphenyl-3,4′-dicarboxylic acid 4′-[(4-hydroxymethyl-phenyl)-amide] 3-[(4-morpholin-4-yl-phenyl)-amide]], the IC50 in series [1] was 1000 to 5000 nM. Further, the TD50 entry in series [2] was “* (key: * < 50 μM; ** > 50 μM)”.

In series [1] (setting [3]), `Cc1ccc(NC(=O)C2CC2)cc1-c1ccc(C(=O)Nc2ccc(-n3cncn3)cc2)cc1` [Example 218, 5′-(Cyclopropanecarbonyl-amino)-2′-methyl-biphenyl-4-carboxylic acid (4-[1,2,4]triazol-1-yl-phenyl)-amide] yielded an IC50 below 1000 nM. In addition, the TD50 result in series [2] (setting [4]) is “* (* < 50 μM)”.

As for `Cc1ccc(C(=O)Nc2ccc(N3CCOCC3)cc2)cc1-c1ccc(C(=O)Nc2cccc(OC(F)(F)F)c2)cc1` [Example 25, 6-Methyl-biphenyl-3,4′-dicarboxylic acid 3-[(4-morpholin-4-yl-phenyl)-amide] 4′-[(3-trifluoromethoxy-phenyl)-amide]], the IC50 in series [1] lay within 1000 to 5000 nM. In addition, the TD50 entry in series [2] was “* (key: * < 50 μM; ** > 50 μM)”.

In series [1] (setting [3]), `Cc1ccc(NC(=O)CC2CC2)cc1-c1ccc(C(=O)Nc2ccc(CN3CCS(=O)(=O)CC3)cc2)cc1` [Example 178, 5′-(2-Cyclopropyl-acetylamino)-2′-methyl-biphenyl-4-carboxylic acid [4-(1,1-dioxo-1lambda*6*-thiomorpholin-4-ylmethyl)-phenyl]-amide] came in with a half-maximal inhibitory concentration (IC50) below 1000 nM. Also, the TD50 result in series [2] (setting [4]) is reported as “* (* < 50 μM)”.

On to `Cc1ccc(NC(=O)c2ccc(F)cc2)cc1-c1ccc(C(=O)Nc2ccc(CN3CCS(=O)(=O)CC3)cc2)cc1` [Example 159, 5′-(4-Fluoro-benzoylamino)-2′-methyl-biphenyl-4-carboxylic acid [4-(1,1-dioxo-1lambda*6*-thiomorpholin-4-ylmethyl)-phenyl]-amide], for which the IC50 in series [1] (setting [3]) was below 1000 nM. The TD50 result in series [2] (setting [4]) is recorded as “* (* < 50 μM)”.

Regarding `Cc1ccc(NC(=O)C2CCCCC2)cc1-c1ccc(C(=O)Nc2ccc(-c3ccno3)cc2)cc1` [Example 231, 5′-(Cyclohexanecarbonyl-amino)-2′-methyl-biphenyl-4-carboxylic acid (4-isoxazol-5-yl-phenyl)-amide], in series [1] (setting [3]), the IC50 was above 5000 nM. In addition, the TD50 result in series [2] (setting [4]) is “* (* < 50 μM)”.

On to `CCC1(c2ccc(NC(=O)c3ccc(-c4cc(C(=O)Nc5ccc(N6CCOCC6)cc5)ccc4C)cc3)cc2)CCC(O)NC1=O` (centres unmarked) [Example 71, 6-Methyl-biphenyl-3,4′-dicarboxylic acid 4′-{[4-(3-ethyl-6-hydroxy-2-oxo-piperidin-3-yl)-phenyl]-amide} 3-[(4-morpholin-4-yl-phenyl)-amide]], for which the half-maximal inhibitory concentration (IC50) in series [1] was below 1000 nM. Moreover, the TD50 result in series [2] was “* (key: * < 50 μM; ** > 50 μM)”.

`COc1cccc(NC(=O)c2cccc(-c3ccc(C(=O)Nc4ccc(N5CCOCC5)cc4)cc3C)c2)c1` [Example 62, 2′-Methyl-biphenyl-3,4′-dicarboxylic acid 3-[(3-methoxy-phenyl)-amide] 4′-[(4-morpholin-4-yl-phenyl)-amide]] gave an IC50 in series [1] below 1000 nM. Further, the TD50 entry in series [2] is “* (key: * < 50 μM; ** > 50 μM)”.

The compound `Cc1ccc(C(=O)NCCCN2CCCC2=O)cc1-c1ccc(C(=O)Nc2ccc(CN3CCS(=O)(=O)CC3)cc2)cc1` [Example 137, 6-Methyl-biphenyl-3,4′-dicarboxylic acid 4′-{[4-(1,1-dioxo-1lambda*6*-thiomorpholin-4-ylmethyl)-phenyl]-amide} 3-{[3-(2-oxo-pyrrolidin-1-yl) -propyl]-amide}] had a half-inhibitory concentration (IC50) in series [1] of 1000 to 5000 nM. In series [2], the TD50 result is recorded as “* (key: * < 50 μM; ** > 50 μM)”.

`Cc1ccc(C(=O)Nc2ccc(N3CCOCC3)cc2)cc1-c1ccc(NC(=O)c2cnccc2C(F)(F)F)cc1` [Example 111, N-[2′-Methyl-5′-(4-morpholin-4-yl-phenylcarbamoyl) -biphenyl-4-yl]-4-trifluoromethyl-nicotinamide]: the concentration for half-maximal inhibition (IC50) in series [1] (setting [3]) is above 5000 nM. Besides, the TD50 entry in series [2] (setting [4]) is on record as “** (** > 50 μM)”.

In series [1] (setting [3]), `Cc1ccc(C(=O)N2CCC(N3CCCC3)CC2)cc1-c1ccc(C(=O)Nc2ccc(CN3CCS(=O)(=O)CC3)cc2)cc1` [Example 128, 2′-Methyl-5′-(4-pyrrolidin-1-yl-piperidine-1-carbonyl) -biphenyl-4-carboxylic acid [4-(1,1-dioxo-1lambda*6*-thiomorpholin-4-ylmethyl)-phenyl]-amide] had a 50% inhibitory concentration (IC50) of 1000 to 5000 nM. Also, the TD50 entry in series [2] (setting [4]) is “* (* < 50 μM)”.

In series [1], `Cc1cc(C(=O)Nc2ccc(N3CCOCC3)cc2)ccc1-c1cccc(C(=O)Nc2ccc(CN3CCS(=O)(=O)CC3)cc2)c1` [Example 135, 2′-Methyl-biphenyl-3,4′-dicarboxylic acid 3-{[4-(1,1-dioxo-1 lambda*6*-thiomorpholin-4-ylmethyl)-phenyl]-amide} 4′-[(4-morpholin-4-yl-phenyl)-amide]] displayed a half-maximal inhibitory concentration (IC50) below 1000 nM. For the same compound, in series [2], the TD50 result is “* (key: * < 50 μM; ** > 50 μM)”.

As for `CCCS(=O)(=O)N1CCN(Cc2ccc(NC(=O)c3ccc(-c4cc(NC(=O)[C@H]5CCCCN5)ccc4Cl)cc3)cc2)CC1` [Example 251, (R)-Piperidine-2-carboxylic acid {6-chloro-4′-[4-(4-(propane-1-sulfonyl)-piperazin-1-ylmethyl)-phenylcarbamoyl]-biphenyl-3-yl}-amide], the IC50 in series [1] (setting [3]) is below 1000 nM. For the same compound, the TD50 result in series [2] (setting [4]) is “* (* < 50 μM)”.

In series [1] (setting [3]), `CC(=O)Nc1ccc(NC(=O)c2ccc(-c3cc(NC(=O)c4ccc(N5CCOCC5)cc4)ccc3C)cc2)cc1` [Example 86, 2′-Methyl-5′-(4-morpholin-4-yl-benzoylamino)-biphenyl-4-carboxylic acid (4-acetylamino-phenyl)-amide] registered an IC50 of 1000 to 5000 nM. Besides, in series [2] (setting [4]), the TD50 entry is on record as “** (** > 50 μM)”.

In series [1] (setting [3]), `Cc1ccc(NC(=O)C2CC2)cc1-c1ccc(NC(=O)c2ccc(CN3CCS(=O)(=O)CC3)cc2)cc1` [Example 149, N-[5′-(Cyclopropanecarbonyl-amino)-2′-methyl-biphenyl-4-yl]-4-(1,1-dioxo-1lambda*6*-thiomorpholin-4-ylmethyl)-benzamide] displayed a 50% inhibitory concentration (IC50) below 1000 nM. Moreover, the TD50 entry in series [2] (setting [4]) is given as “* (* < 50 μM)”.

In turn, `Cc1ccc(NC(=O)c2cn[nH]c2)cc1-c1ccc(C(=O)Nc2ccc(N3CCOCC3)cc2)cc1` [Example 108, 1H-Pyrazole-4-carboxylic acid [6-methyl-4′-(4-morpholin-4-yl-phenylcarbamoyl)-biphenyl-3-yl]-amide] had an IC50 in series [1] (setting [3]) of 1000 to 5000 nM. Moreover, in series [2] (setting [4]), the TD50 entry is “** (** > 50 μM)”.
